SMILES strings stand for the structures. Calls of active or inactive are those of the source. No cut-off for these calls is given here.

The species entered for experiment [1] is Rattus norvegicus. The experiment is described as follows: Dose required for postsynaptic agonism using motor activity test in reserpinized rats. The experiment is classed as functional.
The species named for experiment [2] is Rattus norvegicus. The experiment is described as follows: Postsynaptic agonistic activity using motor activity test in reserpinized rats per 30 min. The experiment is classed as functional.
In experiment [3] the target is T1, Dopamine receptor (Rattus norvegicus) (UniProt P25115+P19020+P30729+P18901+P61169). The experiment is described as follows: Compound was tested for presynaptic agonistic activity against dopamine receptor in limbic system; I= Inactive. The experiment is classed as functional, tissue-based.
The target in experiment [4] is T1, Dopamine receptor (Rattus norvegicus). The experiment is described as follows: Compound was tested or presynaptic agonistic activity against dopamine receptor in striatum; I= Inactive. The class given is functional, tissue-based.
The species entered for experiment [5] is Rattus norvegicus. In words: Compound was evaluated for postsynaptic agonistic activity using motor activity test in reserpinized rats per 30 min; ns= Not significant. The class given is functional.
Experiment [6] concerns Rattus norvegicus. The experiment is described as follows: Dose required for postsynaptic agonism using motor activity test in reserpinized rats; I= Inactive at 2 umol/kg. The experiment is classed as functional, organism-based.
The target in experiment [7] is T1, Dopamine receptor (Rattus norvegicus). In words: Compound was tested for presynaptic agonistic activity against dopamine receptor in limbic system; Inactive. The class given is functional, tissue-based.
Experiment [8] has the same target. The experiment is described as follows: Compound was tested or presynaptic agonistic activity against dopamine receptor in striatum; Inactive. The experiment is classed as functional, tissue-based.

Consider `CN1CCCC2c3cccc(O)c3CCC21` (configuration not stated), for which, in the experiment listed under Rattus norvegicus [1], the Dose stood at 100 µM/kg. The Acc. counts in the experiment listed under Rattus norvegicus [2] is recorded as 40.
For `CCNC1CCc2c(O)cccc2C1` (configuration not stated) the same measures were 2 µM/kg and 181.
`CCCN1CCC[C@@H](c2cccc(O)c2)C1` [PRECLAMOL] had a Dose in the experiment listed under Rattus norvegicus [1] of 213 µM/kg. The Acc. counts in the experiment filed under Rattus norvegicus [2] was determined as 12.
For `CCCN1CCC[C@H](c2cccc(O)c2)C1` the same measures were 13 µM/kg and 78.
For the compound `Oc1cccc2c1CCC(N1CCCCC1)C2` (configuration not stated), the ED50 entry in experiment [3] and in experiment [4] was “inactive” in each case.
The compound `Oc1ccc2c(c1)C1CCCNC1CC2` (configuration not stated) gave an Acc. counts in the experiment filed under Rattus norvegicus [5] of 10. Moreover, in the experiment listed under Rattus norvegicus [1], the Dose is 106 µM/kg.
With `CCCN1CCC[C@@H]2c3cc(O)ccc3CC[C@H]21`, in the experiment filed under Rattus norvegicus [1], the Dose is 1.06 µM/kg. Also, in the experiment filed under Rattus norvegicus [2], the Acc. counts was found to be 155.
`CNC1CCc2c(O)cccc2C1` (configuration not stated) returned an Acc. counts in the experiment filed under Rattus norvegicus [5] of 18. In the experiment listed under Rattus norvegicus [1], this compound yielded a Dose of 100 µM/kg.
`CCCN1CCC[C@H]2c3cccc(O)c3CC[C@@H]21` came in with a Dose in the experiment filed under Rattus norvegicus [1] of 1.3 µM/kg. In the experiment filed under Rattus norvegicus [2], this compound came in with an Acc. counts of 62.
In turn, `Oc1cccc2c1CC[C@@H]1NCCC[C@@H]21` came in with an Acc. counts in the experiment filed under Rattus norvegicus [5] of 10. This compound also had a Dose in the experiment listed under Rattus norvegicus [1] of 106 µM/kg.
For the compound `CCCN1CCC[C@@H](c2ccc(O)c(O)c2)C1`, in the experiment listed under Rattus norvegicus [1], the Dose turned out to be 50 µM/kg. Moreover, the Acc. counts in the experiment listed under Rattus norvegicus [2] is recorded as 24.
For `CCCN(CCC)[C@@H]1CCc2ccc(O)cc2C1` the same measures were 0.31 µM/kg and 46.
For `CCCN(C)C1CCc2c(O)cccc2C1` (configuration not stated) the same measures were 2 µM/kg and 239.
In the case of `CCCCNC1CCc2c(O)cccc2C1` (configuration not stated), the Dose entry with Rattus norvegicus [6] is “inactive”. Moreover, the ED50 entry in experiment [7] and in experiment [8] was “inactive” in each case.
Regarding `CN(C)C1CCc2c(O)cccc2C1` (configuration not stated), in the experiment filed under Rattus norvegicus [1], the Dose was found to be 100 µM/kg. This compound also had an Acc. counts in the experiment listed under Rattus norvegicus [2] of 52.
In the experiment filed under Rattus norvegicus [1], `CN1CCc2cccc3c2[C@H]1Cc1ccc(O)c(O)c1-3` [APOMORPHINE] registered a Dose of 2.3 µM/kg. This compound also registered an Acc. counts in the experiment filed under Rattus norvegicus [2] of 361.
In the experiment listed under Rattus norvegicus [1], `CN1CCCC2c3cc(O)ccc3CCC21` (configuration not stated) gave a Dose of 106 µM/kg. The Acc. counts in the experiment filed under Rattus norvegicus [2] is listed as 60.
For `CCCN(CCC)[C@@H]1Cc2cccc(O)c2C[C@H]1C` the same measures were 0.31 µM/kg and 155.
